{"source": "patent US4948892A", "about": "“Sulfonamid compound useful for treating cardiovascular disorders” (Kowa Comp., Ltd., priority 1988, dated 1990)", "tested_on": "ADP-induced platelet aggregation (rabbit PRP)", "experiment": "Inhibitory effect on ADP-induced platelet aggregation in PRP", "type": "cell-based", "details": "ADP (2 μM), preincubated 37° C. for 1 minute, inhibition rate (%) at this concentration in parentheses", "procedure": "Rabbit PRP (250 μl) was preincubated with drug samples (10 μl of aqueous solution or 1 μl of DMSO solution) at 37° C. for 1 minute, and ADP (2 μM)-induced platelet aggregation was measured by aggregometer (NKK HEMA TRACERl Model PAT-4M). Inhibitory effects of the drugs were estimated from the standard curve of maximal aggregation.", "data": [{"molecule": "O=S(=O)(NCCCN1CCN(C(c2ccccc2)c2ccccc2)CC1)c1ccc(Cl)cc1", "note": "[Example 9]", "values": [{"measurement": "Platelet aggregation inhibitory concentration", "result": "10^-4 mole/liter"}]}]}
